Test results from ChEMBL document CHEMBL5518215, “Unlocking Antibacterial Potential: Key-Site-Based Regulation of Antibacterial Spectrum of Peptides” (J Med Chem, 2024).

Assays:
Escherichia coli [1] = test: Antimicrobial activity against Escherichia coli 25922 assessed as absence bacterial growth measured after 18 to 24 hrs incubation by NCCLS method; assay type: functional; conditions: time 18-24 hrs
Escherichia coli [2] = test: Antimicrobial activity against Escherichia coli K88 assessed as absence bacterial growth measured after 18 to 24 hrs incubation by NCCLS method; assay type: functional; conditions: time 18-24 hrs
Salmonella typhimurium [3] = test: Antimicrobial activity against Salmonella typhimurium 14028 assessed as absence bacterial growth measured after 18 to 24 hrs incubation by NCCLS method; assay type: functional, Salmonella enterica subsp. enterica serovar Typhimurium; conditions: Salmonella enterica, time 18-24 hrs
[4] = Antimicrobial activity against Salmonella pullorum C7913 assessed as absence bacterial growth measured after 18 to 24 hrs incubation by NCCLS method; assay type: functional, Salmonella enterica subsp. enterica serovar Pullorum; conditions: Salmonella enterica, time 18-24 hrs
Pseudomonas aeruginosa [5] = test: Antimicrobial activity against Pseudomonas aeruginosa 27853 assessed as absence bacterial growth measured after 18 to 24 hrs incubation by NCCLS method; assay type: functional; conditions: time 18-24 hrs
Acinetobacter baumannii [6] = test: Antimicrobial activity against Acinetobacter baumannii 1.6769 assessed as absence bacterial growth measured after 18 to 24 hrs incubation by NCCLS method; assay type: functional; conditions: time 18-24 hrs
Enterococcus faecalis [7] = test: Antimicrobial activity against Enterococcus faecalis 29212 assessed as absence bacterial growth measured after 18 to 24 hrs incubation by NCCLS method; assay type: functional; conditions: time 18-24 hrs
Listeria monocytogenes [8] = test: Antimicrobial activity against Listeria monocytogenes 1.10753 assessed as absence bacterial growth measured after 18 to 24 hrs incubation by NCCLS method; assay type: functional; conditions: time 18-24 hrs
Bacillus cereus [9] = test: Antimicrobial activity against Bacillus cereus 1.932 assessed as absence bacterial growth measured after 18 to 24 hrs incubation by NCCLS method; assay type: functional; conditions: time 18-24 hrs
Staphylococcus aureus [10] = test: Antimicrobial activity against Staphylococcus aureus 29213 assessed as absence bacterial growth measured after 18 to 24 hrs incubation by NCCLS method; assay type: functional; conditions: time 18-24 hrs
Staphylococcus aureus [11] = test: Antimicrobial activity against Methicillin-resistant Staphylococcus aureus 43300 assessed as absence bacterial growth measured after 18 to 24 hrs incubation by NCCLS method; assay type: functional; conditions: time 18-24 hrs
[12] = system: Staphylococcus epidermidis; test: Antimicrobial activity against Staphylococcus epidermidis 12228 assessed as absence bacterial growth measured after 18 to 24 hrs incubation by NCCLS method; assay type: functional; conditions: time 18-24 hrs
Staphylococcus aureus [13] = test: Antimicrobial activity against Staphylococcus aureus 29213 assessed as absence bacterial growth measured after 18 to 24 hrs incubation by NCCLS m; assay type: functional; conditions: time 18-24 hrs
Escherichia coli [14] = test: Antimicrobial activity against Escherichia coli 25922 assessed as bacterial killing measured after 16 hrs incubation; assay type: functional
Escherichia coli [15] = test: Antimicrobial activity against Escherichia coli K88 assessed as bacterial killing measured after 16 hrs incubation; assay type: functional
Salmonella typhimurium [16] = test: Antimicrobial activity against Salmonella typhimurium 14028 assessed as bacterial killing measured after 16 hrs incubation; assay type: functional, Salmonella enterica subsp. enterica serovar Typhimurium; conditions: Salmonella enterica
Salmonella typhimurium [17] = test: Antimicrobial activity against Salmonella typhimurium C7731 assessed as bacterial killing measured after 16 hrs incubation; assay type: functional, Salmonella enterica subsp. enterica serovar Typhimurium; conditions: Salmonella enterica
[18] = Antimicrobial activity against Salmonella pullorum C7913 assessed as bacterial killing measured after 16 hrs incubation; assay type: functional, Salmonella enterica subsp. enterica serovar Pullorum; conditions: Salmonella enterica
Pseudomonas aeruginosa [19] = test: Antimicrobial activity against Pseudomonas aeruginosa 27853 assessed as bacterial killing measured after 16 hrs incubation; assay type: functional
Acinetobacter baumannii [20] = test: Antimicrobial activity against Acinetobacter baumannii 1.6769 assessed as bacterial killing measured after 16 hrs incubation; assay type: functional
Enterococcus faecalis [21] = test: Antimicrobial activity against Enterococcus faecalis 29212 assessed as bacterial killing measured after 16 hrs incubation; assay type: functional
Listeria monocytogenes [22] = test: Antimicrobial activity against Listeria monocytogenes 1.10753 assessed as bacterial killing measured after 16 hrs incubation; assay type: functional
Bacillus cereus [23] = test: Antimicrobial activity against Bacillus cereus 1.932 assessed as bacterial killing measured after 16 hrs incubation; assay type: functional
Staphylococcus aureus [24] = test: Antimicrobial activity against Staphylococcus aureus 29213 assessed as bacterial killing measured after 16 hrs incubation; assay type: functional
Staphylococcus aureus [25] = test: Antimicrobial activity against Methicillin-resistant Staphylococcus aureus 43300 assessed as bacterial killing measured after 16 hrs incubation; assay type: functional
[26] = system: Staphylococcus epidermidis; test: Antimicrobial activity against Staphylococcus epidermidis 12228 assessed as bacterial killing measured after 16 hrs incubation; assay type: functional
Staphylococcus aureus [27] = test: Antimicrobial activity against Staphylococcus aureus 25923 assessed as bacterial killing measured after 16 hrs incubation; assay type: functional
Salmonella typhimurium [28] = test: Antimicrobial activity against Salmonella typhimurium C7731 assessed as absence bacterial growth measured after 18 to 24 hrs incubation by NCCLS method; assay type: functional, Salmonella enterica subsp. enterica serovar Typhimurium; conditions: Salmonella enterica, time 18-24 hrs
Escherichia coli [29] = test: Antimicrobial activity against Escherichia coli 25922 assessed as absence bacterial growth measured after 18 to 24 hrs incubation in presence of 50% serum by NCCLS method; assay type: functional; conditions: time 18-24 hrs
Escherichia coli [30] = test: Antimicrobial activity against Escherichia coli 25922 assessed as absence bacterial growth measured after 18 to 24 hrs incubation in presence of 25% serum by NCCLS method; assay type: functional; conditions: time 18-24 hrs
Escherichia coli [31] = test: Antimicrobial activity against Escherichia coli 25922 assessed as absence bacterial growth measured after 18 to 24 hrs incubation in presence of 12.5% serum by NCCLS method; assay type: functional; conditions: time 18-24 hrs
Escherichia coli [32] = test: Antimicrobial activity against Escherichia coli 25922 assessed as absence bacterial growth measured after 18 to 24 hrs incubation in presence of NaCl by NCCLS method; assay type: functional; conditions: time 18-24 hrs
Escherichia coli [33] = test: Antimicrobial activity against Escherichia coli 25922 assessed as absence bacterial growth measured after 18 to 24 hrs incubation in presence of KCl by NCCLS method; assay type: functional; conditions: time 18-24 hrs
Escherichia coli [34] = test: Antimicrobial activity against Escherichia coli 25922 assessed as absence bacterial growth measured after 18 to 24 hrs incubation in presence of NH4Cl by NCCLS method; assay type: functional; conditions: time 18-24 hrs
Escherichia coli [35] = test: Antimicrobial activity against Escherichia coli 25922 assessed as absence bacterial growth measured after 18 to 24 hrs incubation in presence of MgCl2 by NCCLS method; assay type: functional; conditions: time 18-24 hrs
Escherichia coli [36] = test: Antimicrobial activity against Escherichia coli 25922 assessed as absence bacterial growth measured after 18 to 24 hrs incubation in presence of ZnCl2 by NCCLS method; assay type: functional; conditions: time 18-24 hrs
Escherichia coli [37] = test: Antimicrobial activity against Escherichia coli 25922 assessed as absence bacterial growth measured after 18 to 24 hrs incubation in presence of FeCl3 by NCCLS method; assay type: functional; conditions: time 18-24 hrs
Erythrocyte = test: Hemolytic activity in human RBC at effective concentration measured after 1 hr by microplate reader analysis; assay type: toxicity, cell-based
[38] = Cytotoxicity against mouse RAW264.7 cells assessed as cell survival rate measured after 8 hrs by MTT assay; assay type: toxicity, cell-based
[39] = Cytotoxicity against human HEK-293T cells assessed as cell survival rate measured after 8 hrs by MTT assay; assay type: toxicity, cell-based
[40] = Cytotoxicity against porcine IPEC-J2 cells assessed as cell survival rate measured after 8 hrs by MTT assay; assay type: toxicity, cell-based, Sus scrofa; conditions: pig
[41] = Hemolytic activity in human RBC at effective concentration at 128 uM measured after 1 hr by microplate reader relative to control; assay type: toxicity, cell-based, Erythrocyte; conditions: human red blood cells (erythrocytes), read-out: Activity

H-GKLWLKGVKLWLKGGKLWLKG-NH2
8 µM: MBC (Salmonella typhimurium [17])
0.5 µM: MIC (Escherichia coli [2]) | MIC [4] | MBC (Escherichia coli [15]) | MBC [18]
8.73 µM: IC50 at 8 h [40]
1 µM: MIC (Escherichia coli [1]) | MIC (Acinetobacter baumannii [6]) | MBC (Escherichia coli [14]) | MIC (Escherichia coli [33]) | MIC (Escherichia coli [34]) | MIC (Escherichia coli [36]) | MIC (Escherichia coli [37])
128 µM: HC10 (Erythrocyte)
2 µM: MIC (Salmonella typhimurium [3]) | MIC (Staphylococcus aureus [11]) | MIC [12] | MIC (Staphylococcus aureus [13]) | MBC (Salmonella typhimurium [16]) | MBC (Staphylococcus aureus [25])
> 32 µM: MIC (Listeria monocytogenes [8]) | MBC (Listeria monocytogenes [22]) | MIC (Escherichia coli [29]) | MIC (Escherichia coli [30])
16 µM: MIC (Escherichia coli [31])
61.3 µM: IC50 at 8 h [38]
> 64 µM: IC50 at 8 h [39]
4 µM: MIC (Pseudomonas aeruginosa [5]) | MIC (Enterococcus faecalis [7]) | MIC (Bacillus cereus [9]) | MIC (Staphylococcus aureus [10]) | MBC (Pseudomonas aeruginosa [19]) | MBC (Acinetobacter baumannii [20]) | MBC (Enterococcus faecalis [21]) | MBC (Bacillus cereus [23]) | MBC (Staphylococcus aureus [24]) | MBC [26] | MBC (Staphylococcus aureus [27]) | MIC (Salmonella typhimurium [28]) | MIC (Escherichia coli [32]) | MIC (Escherichia coli [35])

H-GKLWLKGWKLWLKGGKLWLKG-NH2
16 µM: MIC (Escherichia coli [31])
2 µM: MIC (Salmonella typhimurium [3]) | MIC (Pseudomonas aeruginosa [5]) | MIC (Acinetobacter baumannii [6]) | MIC (Enterococcus faecalis [7]) | MIC (Staphylococcus aureus [10]) | MIC (Staphylococcus aureus [11]) | MIC [12] | MBC (Acinetobacter baumannii [20]) | MIC (Salmonella typhimurium [28]) | MIC (Escherichia coli [32]) | MIC (Escherichia coli [34]) | MIC (Escherichia coli [35])
61.9 µM: IC50 at 8 h [39]
8 µM: MBC (Salmonella typhimurium [17]) | MBC (Staphylococcus aureus [27])
1 µM: MIC (Escherichia coli [1]) | MIC (Escherichia coli [2]) | MIC [4] | MIC (Bacillus cereus [9]) | MBC (Escherichia coli [14]) | MBC (Escherichia coli [15]) | MBC [18] | MIC (Escherichia coli [33]) | MIC (Escherichia coli [36]) | MIC (Escherichia coli [37])
3.9 µM: IC50 at 8 h [40]
> 32 µM: MIC (Listeria monocytogenes [8]) | MBC (Listeria monocytogenes [22])
53.5 µM: IC50 at 8 h [38]
4 µM: MIC (Staphylococcus aureus [13]) | MBC (Salmonella typhimurium [16]) | MBC (Pseudomonas aeruginosa [19]) | MBC (Enterococcus faecalis [21]) | MBC (Bacillus cereus [23]) | MBC (Staphylococcus aureus [24]) | MBC (Staphylococcus aureus [25]) | MBC [26]
32 µM: MIC (Escherichia coli [29]) | MIC (Escherichia coli [30]) | HC10 (Erythrocyte)

H-IKLWLKGGKLWLKGGKLWLKG-NH2
4 µM: MIC (Escherichia coli [1]) | MIC (Escherichia coli [33])
8 µM: MIC (Salmonella typhimurium [3]) | MIC (Pseudomonas aeruginosa [5]) | MIC (Acinetobacter baumannii [6]) | MBC (Escherichia coli [14]) | MBC (Salmonella typhimurium [16]) | MBC (Pseudomonas aeruginosa [19]) | MBC (Acinetobacter baumannii [20]) | MIC (Salmonella typhimurium [28]) | MIC (Escherichia coli [34])
32 µM: MBC (Salmonella typhimurium [17])
> 32 µM: MIC (Enterococcus faecalis [7]) | MIC (Listeria monocytogenes [8]) | MIC (Bacillus cereus [9]) | MIC (Staphylococcus aureus [10]) | MIC (Staphylococcus aureus [11]) | MIC [12] | MIC (Staphylococcus aureus [13]) | MBC (Enterococcus faecalis [21]) | MBC (Listeria monocytogenes [22]) | MBC (Bacillus cereus [23]) | MBC (Staphylococcus aureus [24]) | MBC (Staphylococcus aureus [25]) | MBC [26] | MBC (Staphylococcus aureus [27]) | MIC (Escherichia coli [29]) | MIC (Escherichia coli [30]) | MIC (Escherichia coli [31]) | MIC (Escherichia coli [32]) | MIC (Escherichia coli [35])
> 64 µM: IC50 at 8 h [38] | IC50 at 8 h [39]
2 µM: MIC (Escherichia coli [2]) | MIC [4] | MBC (Escherichia coli [15]) | MBC [18]
> 128 µM: HC10 (Erythrocyte)
16 µM: MIC (Escherichia coli [36]) | MIC (Escherichia coli [37])
31.4 µM: IC50 at 8 h [40]
< 10%: hemolysis at 1 h, 128 µM [41]
